Values of other authors, collected in US20190250088A1, “Methods and Apparatus for Predicting and Confirming Drug-Induced Thrombocytopenia Through Particle Detection with Dynamic Light Scattering” (LightIntegra Technology Inc., priority 2018, published 2019).

Settings: patients recently exposed to heparin; background statement

Substance	HIT occurs in patients receiving the drug (incidence of heparin-induced thrombocytopenia)
low molecular weight heparin [low molecular weight heparin (LMWH)]	< 1%
unfractionated heparin [unfractionated heparin (UFH)]	up to 5%
